{"source": "paper PMC11915375", "about": "(ACS Infectious Diseases, 2025)", "key": {"[1]": {"test_system": "T. cruzi", "details": "read-out: T. cruzi EC50; different host cell line (NIH3T3), assay run at NYU; cited from earlier work"}, "[2]": {"test_system": "Leishmania major amastigotes", "details": "read-out: L. maj EC50; 12a, 12b previously reported compounds; cited from earlier work"}, "[3]": {"test_system": "T. brucei", "details": "read-out: T. brucei EC50; assay run at NYU; cited from earlier work"}, "[4]": {"test_system": "S. mansoni adult worms", "assay": "S. mansoni adult worm phenotypic assay", "assay_type": "cell-based, Schistosoma mansoni", "details": "scale 0-4"}, "[5]": {"test_system": "T. cruzi CA-I/72", "assay": "T. cruzi in vitro assay, C2C12 host cell", "assay_type": "cell-based, Trypanosoma cruzi", "details": "Trypanosoma cruzi, C2C12, read-out: T. cruzi EC50"}, "[6]": {"test_system": "Leishmania major amastigotes", "assay": "Leishmania major amastigote assay", "assay_type": "cell-based", "details": "Leishmania major, read-out: L. maj EC50"}, "[7]": {"test_system": "T. brucei", "assay": "T. brucei proliferation inhibition assay", "assay_type": "cell-based, Trypanosoma brucei", "details": "Trypanosoma brucei, read-out: T. brucei EC50 ± S.D."}, "[8]": {"test_system": "L. donovani", "assay": "L. donovani in vitro assay", "assay_type": "cell-based, Leishmania donovani", "details": "Leishmania donovani, read-out: L. don EC50, B10R host cell line"}}, "note": "Like-named read-outs stand apart in the source and are kept apart here.", "data": [{"smiles": "CN1CCN(S(=O)(=O)c2ccc(-c3ccc4c(Nc5ccc(OCc6cccc(F)c6)c(Cl)c5)cnnc4c3)cc2)CC1", "note": "[Compound 12b, N-(3-Chloro-4-((3-fluorobenzyl)oxy)phenyl)-7-(4-((4-methylpiperazin-1-yl)sulfonyl)phenyl)cinnolin-4-amine]", "values": [{"measurement": "EC50", "setting": "[1]", "result": 3.1, "unit": "µM"}, {"measurement": "EC50", "setting": "[2]", "result": 2, "unit": "µM"}, {"measurement": "EC50", "setting": "[3]", "result": 1, "unit": "µM"}]}, {"smiles": "COc1ccc(Nc2cnnc3cc(-c4ccc(S(=O)(=O)N5CCN(C)CC5)cc4)ccc23)cc1Cl", "note": "[Compound 17b, N-(3-Chloro-4-methoxyphenyl)-7-(4-((4-methylpiperazin-1-yl)sulfonyl)phenyl)cinnolin-4-amine]", "values": [{"measurement": "Adult severity score (10 µM) 5 h", "setting": "[4]", "result": 4}, {"measurement": "EC50", "setting": "[5]", "result": "> 10", "unit": "µM"}, {"measurement": "EC50", "setting": "[6]", "result": "> 1.9", "unit": "µM"}, {"measurement": "EC50", "setting": "[7]", "result": "8.3 ± 0.35", "unit": "µM"}]}, {"smiles": "CN1CCN(S(=O)(=O)c2ccc(-c3ccc4nncc(Nc5ccc(OCc6cccc(F)c6)c(Cl)c5)c4c3)cc2)CC1", "note": "[Compound 12a, N-(3-Chloro-4-((3-fluorobenzyl)oxy)phenyl)-6-(4-((4-methylpiperazin-1-yl)sulfonyl)phenyl)cinnolin-4-amine]", "values": [{"measurement": "EC50", "setting": "[1]", "result": "> 50", "unit": "µM"}, {"measurement": "EC50", "setting": "[2]", "result": 1.9, "unit": "µM"}, {"measurement": "EC50", "setting": "[3]", "result": 0.98, "unit": "µM"}]}, {"smiles": "CN1CCN(S(=O)(=O)c2ccc(-c3ccc4c(Nc5ncccn5)cnnc4c3)cc2)CC1", "note": "[Compound 16b, 7-(4-((4-Methylpiperazin-1-yl)sulfonyl)phenyl)-N-(pyrimidin-2-yl)cinnolin-4-amine]", "values": [{"measurement": "EC50", "setting": "[5]", "result": "> 10", "unit": "µM"}, {"measurement": "EC50", "setting": "[6]", "result": "> 11", "unit": "µM"}, {"measurement": "EC50", "setting": "[7]", "result": "11 ± 1.5", "unit": "µM"}, {"measurement": "EC50", "setting": "[8]", "result": "> 10", "unit": "µM"}]}, {"smiles": "CN1CCN(S(=O)(=O)c2ccc(-c3ccc4c(Nc5cnccn5)cnnc4c3)cc2)CC1", "note": "[Compound 15b, 7-(4-((4-Methylpiperazin-1-yl)sulfonyl)phenyl)-N-(pyrazin-2-yl)cinnolin-4-amine]", "values": [{"measurement": "EC50", "setting": "[5]", "result": "6.5 ± 2.3", "unit": "µM"}, {"measurement": "EC50", "setting": "[6]", "result": "> 22", "unit": "µM"}, {"measurement": "EC50", "setting": "[7]", "result": "9.7 ± 2.1", "unit": "µM"}, {"measurement": "EC50", "setting": "[8]", "result": 5.52, "unit": "µM"}]}, {"smiles": "CN1CCN(c2ccc(-c3ccc4nncc(Nc5ccc(OC(F)(F)F)cc5)c4c3)cc2)CC1", "note": "[Compound 24a, 6-(4-(4-Methylpiperazin-1-yl)phenyl)-N-(4-(trifluoromethoxy)phenyl)cinnolin-4-amine]", "values": [{"measurement": "EC50", "setting": "[5]", "result": 0.87, "unit": "µM"}, {"measurement": "EC50", "setting": "[6]", "result": "> 21", "unit": "µM"}, {"measurement": "EC50", "setting": "[7]", "result": "0.41 ± 0.024", "unit": "µM"}, {"measurement": "EC50", "setting": "[8]", "result": 0.52, "unit": "µM"}]}, {"smiles": "CN1CCN(c2ccc(-c3ccc4c(Nc5ncc(Cl)cn5)cnnc4c3)cc2)CC1", "note": "[Compound 22b, N-(5-Chloropyrimidin-2-yl)-7-(4-(4-methylpiperazin-1-yl)phenyl)cinnolin-4-amine]", "values": [{"measurement": "EC50", "setting": "[5]", "result": 2.3, "unit": "µM"}, {"measurement": "EC50", "setting": "[6]", "result": 4.2, "unit": "µM"}, {"measurement": "EC50", "setting": "[7]", "result": "0.72 ± 0.47", "unit": "µM"}, {"measurement": "EC50", "setting": "[8]", "result": "> 10", "unit": "µM"}]}]}
